According to ChEMBL document CHEMBL1148943, “Estrogenic and anticarcinogenic properties of kurarinone, a lavandulyl flavanone from the roots of Sophora flavescens” (J Nat Prod, 2004):

Columns and labels:
[1] = Cytotoxicity against human MCF7/6 cells at 40 uM after 72 hrs by SRB assay; assay type: functional; conditions: MCF7/6, 72 h
[2] = Cytotoxicity against human MCF7/6 cells at 80 uM after 72 hrs by SRB assay; assay type: functional; conditions: MCF7/6, 72 h
[3] = Cytotoxicity against human MCF7/6 cells after 72 hrs by SRB assay; assay type: functional, cell-based; conditions: MCF7/6, 72 h
Estrogen receptor [4] = target: T1, Estrogen receptor (Homo sapiens, UniProt P03372); assay: Estrogenic activity at human estrogen receptor expressing Saccharomyces cerevisiae carrying estrogen responsive sequence containing plasmid assessed as metabolism of chlorophenol res beta-D-galactopyranoside
T1 sequence (P03372 whole entry): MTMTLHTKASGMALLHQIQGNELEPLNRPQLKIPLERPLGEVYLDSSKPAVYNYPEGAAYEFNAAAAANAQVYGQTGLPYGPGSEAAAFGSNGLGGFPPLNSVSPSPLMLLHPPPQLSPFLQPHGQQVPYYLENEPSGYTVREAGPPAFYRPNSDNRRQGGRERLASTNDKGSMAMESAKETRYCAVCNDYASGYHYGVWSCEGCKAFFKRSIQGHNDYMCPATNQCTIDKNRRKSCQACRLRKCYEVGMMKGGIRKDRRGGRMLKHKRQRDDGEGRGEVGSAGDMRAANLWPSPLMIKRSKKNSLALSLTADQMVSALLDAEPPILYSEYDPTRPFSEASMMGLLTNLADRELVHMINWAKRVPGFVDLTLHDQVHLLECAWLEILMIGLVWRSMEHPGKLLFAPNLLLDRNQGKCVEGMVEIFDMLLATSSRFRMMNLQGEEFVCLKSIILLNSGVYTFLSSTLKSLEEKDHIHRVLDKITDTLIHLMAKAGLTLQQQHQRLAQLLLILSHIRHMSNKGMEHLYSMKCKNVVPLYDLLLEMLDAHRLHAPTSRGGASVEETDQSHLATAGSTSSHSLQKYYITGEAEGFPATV

Estrogen receptor [5] = target: T1, Estrogen receptor; assay: Estrogenic activity at estrogen receptor in human Ishikawa Var-1 cells assessed as stimulation of alkaline phosphatase activity measured by metabolism of p-nitrophenol phosphatase after 72 hrs; assay type: cell-based

C=C(C)C(CC=C(C)C)Cc1c(O)cc(OC)c2c1O[C@H](c1ccc(O)cc1O)CC2=O (stereo not given in full) [KURARINONE]
inhibition at 40 µM [1]: 60% | inhibition at 80 µM [2]: > 80% | IC50 [3]: 22.2 µM | EC50 (Estrogen receptor [4]): 4.6 µM | EC50 (Estrogen receptor [5]): 1.66 µM
